Test results: patent US20040132715A1, “Method to treat allergic rhinitis” (priority 2002, published 2004)
Where “and” joins values, the source holds several entries; their conditions need not be identical. Equal values may be shown once.

Experiments:
Format in all cases: in vivo
[1] = test system: Zymosan Induced Peritonitis in Mice; experiment: Zymosan induced peritonitis in mice (PMN influx into peritoneal cavity); conditions: for effect on PMN influx (in words): Imetit, thioperamide 5 mg/kg, s.c.; for PMN (10^6 per mouse), mean: group mean; for PMN (10^6 per mouse), mean / PMN (10^6 per mouse), single mice: s.c. at -15 min and +2 h (Compound 1 10 mg/kg; Imetit, Thioperamide 5 mg/kg), 1 mg zymosan A i.p.; for PMN (10^6 per mouse), single mice: lavage at 4 h
Procedure: This is commonly used to induce peritonitis in mice and appears to act in a mast cell dependent manner. Male out-bred Swiss albino mice were purchased from Bantin and Kingman (T.O. strain; Hull, Humberside) and maintained on a standard chow pellet diet with tap water ad libitum and a 12:00 h light /dark cycle. All animals were housed for at least 3 days prior to experimentation to allow body weight to reach ˜30 g on the day of the experiment. […] Animals were briefly (30-60 s) anesthetized with halothane for all s.c. and i.p. treatments described below. Drugs were stored at room temperature, in the dark. On the day of the experiment, drugs were dissolved in sterile PBS as depicted below, and generously vortexed. […] Time −15 min: Compounds or PBS administered s.c. at the reported doses. Time 0: At time 0, mice received 1 mg zymosan A (Sigma) i.p. Time +2 h: Compounds or PBS administered s.c. at the reported doses. […] Peritoneal cavities were washed 4 h later with 3 mL of PBS containing 3 mM EDTA, and the number of migrated leukocytes determined, by taking an aliquot (100 μL) of the lavage fluid and diluting 1:10 in Turk's solution (0.01% crystal violet in 3% acetic acid). The samples were then vortexed and 10 μL of the stained cell solution were placed in a Neubauer haemocytometer. Differential cell counts were performed using a light microscope (Olympus B061). […] Statistical differences were determined by Anova followed by Bonferroni's post-hoc test.

[2] = test system: Croton Oil Induced Topical Inflammation in Mice; experiment: Croton oil induced topical inflammation in mice (ear swelling); conditions: for Difference in ear Thickness, Mean: group mean, s.c. x3 (Compound 1 10 mg/kg; Indomethacin 30 mg/kg), 6 h after croton oil
[3] = test system: Sodium Urate Crystal Induced Peritonitis in Mice; experiment: Sodium urate crystal (MSU) induced peritonitis in mice (PMN migration)
Procedure: Such crystals are the primary cause of the inflammation associated with acute gouty arthritis.
Male out-bred Swiss albino mice were purchased from Bantin and Kingman (T.O. strain; Hull, Humberside) and maintained on a standard chow pellet diet with tap water ad libitum and a 12:00 h light/dark cycle. All animals were housed for at least 3 days prior to experimentation to allow body weight to reach ˜30 g on the day of the experiment. For this particular experiment body weight was 30±1 (n=32).
Compound 1 was stored at room temperature in the dark. […] Mice received 3 mg mono sodium urate crystals (MSU) given intra-peritoneally at time 0.
Time +6 h: Peritoneal cavities were washed 6 h later with 3 mL of PBS containing 3 mM EDTA, and the number of migrated leukocytes determined, by taking an aliquot (100 μL) of the lavage fluid and diluting 1:10 in Turk's solution (0.01% crystal violet in 3% acetic acid). The samples were then vortexed and 10 μL of the stained cell solution were placed in a Neubauer hematocytometer. Differential cell counts were performed using a light microscope (Olympus B061). In view of their chromatic characteristics and their nucleus and cytoplasm appearance, cells polymorphonuclear cells (PMN, >95% neutrophils) could be easily differentiated
Experimental groups are described below:
Data are shown for single mice, and also shown as mean ±SE of (n) mice per group. Statistical differences were determined by Student's t test. A P value <0.05 was taken as significant.
PMN influx into the peritoneal cavity was measured at the 6 h time-point after collection of the lavage fluids and specific staining as described in the experimental section.

Structure (SMILES)	effect on PMN influx (in words) ([1]; Compound 1 10 mg/kg, 4 h)	PMN (10^6 per mouse), mean ([1]; 4 h)	PMN (10^6 per mouse), single mice [1]	% inhib (PMN influx) ([1]; vs PBS group, Compound 1 10 mg/kg, Thioperamide 5 mg/kg s.c., 4 h)	Difference in ear Thickness, Mean [2]	effect on ear swelling (in words) ([2]; 10 mg/kg x 3 s.c.)	inhibition at 10 mg/kg ([2]; Mus musculus, sc, 6 h, read-out: % inhib (ear swelling))	Difference in ear Thickness, single mice ([2]; single mice, s.c. 30 min before, 2 and 4 h after croton oil (Compound 1 10 mg/kg; Indomethacin 30 mg/kg), measured 6 h after croton oil)	effect on PMN migration (in words) ([3]; 10 mg/kg s.c., 6 h)	PMN (10^6 per mouse), mean ([3]; group mean, 10 mg/kg s.c. at -15 min, +2 h and +4 h, 3 mg MSU crystals i.p., 6 h time-point)	PMN (10^6 per mouse), single mice ([3]; single mice, 10 mg/kg s.c. at -15 min, +2 h and +4 h, 3 mg MSU crystals i.p., 6 h time-point, 10 mg/kg)
S=C(NC1CCCCC1)N1CCC(c2cnc[nH]2)CC1 [Thioperamide]	significant inhibitory effect	9.3 10^6 per mouse	9.3 10^6 per mouse and 16.5 10^6 per mouse and 7.2 10^6 per mouse and 10.8 10^6 per mouse and 5.4 10^6 per mouse and 9.9 10^6 per mouse and 6.9 10^6 per mouse and 8.1 10^6 per mouse	(−46%)	–	–	–	–	–	–	–
N=C(N)SCCc1cnc[nH]1 [Imetit]	inactive	17.3 10^6 per mouse	–	–	–	–	–	–	–	–	–
COc1ccc2c(c1)c(CC(=O)O)c(C)n2C(=O)c1ccc(Cl)cc1 [Indomethacin, reference compound]	–	–	–	–	10.0 × 0.01 mm	–	–	–	–	–	–
CN1CCN(C(=O)c2cc3cc(Cl)ccc3[nH]2)CC1 [Compound 1, (5-Chloro-1H-indol-2-yl)-(4-methyl-piperazin-1-yl)-methanone]	significantly reduced PMN influx	6.6 10^6 per mouse	9.9 10^6 per mouse and 3.6 10^6 per mouse and 9.3 10^6 per mouse and 3.3 10^6 per mouse and 8.1 10^6 per mouse and 5.1 10^6 per mouse and 6.9 10^6 per mouse	–	12.0 × 0.01 mm	significantly reduced the swelling	28%	12 × 0.01 mm and 10 × 0.01 mm and 13 × 0.01 mm and 9 × 0.01 mm and 16 × 0.01 mm	significantly reduced PMN migration	6.8 10^6 per mouse	7.8 10^6 per mouse (2×) and 4.5 10^6 per mouse and 3.0 10^6 per mouse and 8.1 10^6 per mouse and 9.3 10^6 per mouse and 6.6 10^6 per mouse and 7.2 10^6 per mouse
